From PMC6093650, “Antidepressive and anxiolytic effects of ostruthin, a TREK-1 channel activator” (PLoS ONE, 2018) come the findings set out here.

Test [1] addresses T1, Kir2.1 (Homo sapiens, UniProt P63252).
T1 construct: expressed in transfected cells
T1 sequence (P63252 1-427): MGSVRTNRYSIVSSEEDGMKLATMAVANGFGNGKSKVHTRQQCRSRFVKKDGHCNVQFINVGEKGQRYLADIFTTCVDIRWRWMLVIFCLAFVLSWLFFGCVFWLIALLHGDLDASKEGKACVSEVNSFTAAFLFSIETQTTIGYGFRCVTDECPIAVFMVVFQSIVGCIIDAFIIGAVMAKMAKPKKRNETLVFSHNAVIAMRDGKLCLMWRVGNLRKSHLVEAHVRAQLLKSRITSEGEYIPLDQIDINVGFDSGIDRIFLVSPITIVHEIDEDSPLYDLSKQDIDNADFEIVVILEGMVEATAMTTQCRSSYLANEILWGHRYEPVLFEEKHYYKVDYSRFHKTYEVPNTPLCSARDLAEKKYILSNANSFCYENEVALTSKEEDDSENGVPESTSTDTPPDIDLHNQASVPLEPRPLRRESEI
Kind of test: whole-cell patch-clamp of Kir2.1 currents in 293T cells. In kind it is cell-based. The note with it: n = 5, read-out: IC50 Kir 2.1. The source says: (§1) For recordings of K^+ channel currents, we prepared stable cell lines for TREK-1, TWIK-related acid-sensitive K^+ channel (TASK-1), strongly inwardly rectifying K^+ channel (Kir2.1), and human ether-a-go-go-related gene (HERG-1) channels and transiently expressed other channels in 293T cells using a calcium-phosphate transfection method. For the establishment of the stable lines, we used lentiviral vectors, and the preparation methods for the lentiviral vectors were described in our previous report. TR-1 cells, which stably expressed TREK-1 channel and were grown on a small cover glass (3 × 18 mm), were placed in a recording chamber with an internal volume of 200 μl. Whole-cell currents were recorded in Tyrode solution using an Axopatch 200B amplifier (Axon Instruments, Foster City, CA) at 25°C. Tyrode solution contained (in mM): NaCl 140, KCl 5.4, NaH2PO4 0.33, CaCl2 2, MgCl2 1, HEPES 5, and glucose 5.5 (pH 7.4 adjusted with NaOH). […] Perfusion (100 μl/min) was continued to maintain the water level throughout recordings. pH and osmotic pressure of solutions were measured with a pH meter (Horiba, Kyoto, Japan) and a freezing point osmometer (Knauer, Berlin, Germany), respectively. […]
(In patch-clamp work, channel activity is measured electrically.)

The target in test [2] is T2, TASK-3 (Homo sapiens, UniProt Q9NPC2).
T2 construct: expressed in transfected cells; host or cells: 293T (transient, calcium-phosphate transfection)
Kind of test: whole-cell patch-clamp of TASK-3 currents in 293T cells. In kind it is cell-based.
From the text: as §1

The target in test [3] is Kv1.4 (Homo sapiens, UniProt P22459). Kind of test: whole-cell patch-clamp of Kv1.4 currents in 293T cells. In kind it is cell-based. As to conditions: n = 5.
From the text: as §1

Test [4] deals with KCNQ-3 (Homo sapiens, UniProt O43525). Briefly: whole-cell patch-clamp of KCNQ-3 currents in 293T cells. The note with it: 100 μM (data not shown). In kind it is cell-based.
From the text: as §1

The subject of test [5] is c-Fos immunoreactivity. Briefly: anti-c-Fos immunostaining of mouse brain nuclei. In kind it is in vivo, mice. How it is done:
The mouse was put into an anesthetizing jar and isoflurane (>0.2 ml) was added to the jar. After confirming that mouse was deeply anesthetized, its brain was fixed by transcardiac perfusion with 4% paraformaldehyde in PBS. The brains were sliced coronally (100 μm in thickness) using a microslicer (PRO7, Dosaka, Kyoto, Japan). The free-floating slices were reacted with an anti-c-Fos antibody (1: 200, goat, Santa Cruz, Dallas, TX) dissolved in PBS containing 0.3% BSA and 0.3% Triton-X-100, at 4°C for 48 h. The immunoreaction was visualized using a secondary antibody (rabbit anti-goat IgG, Vectastain Elite ABC-HRP Kit, Vector Labs, Burlingame, CA) and 3,3'-Diaminobenzidine (DAB, Tokyo Chemical Industry, Tokyo, Japan) at room temperature in accordance with the manufacturer’s instructions.
For statistical analysis, the number of c-Fos-immunoreactive cells was quantified using the Image-J software. Briefly, fields (0.16 mm^2) of c-Fos immunoreactivity were acquired by a microscope IX70 (Olympus) using a CCD camera. DAB-positive nuclei, of which diameters were longer than 7 μm, were considered as anti-c-Fos-immunoreactive neurons. The immunoreactive cell numbers were normalized to cells/mm^2.

[6] abbreviates: 5 mg/kg, 30 min after tail suspension stress, n = 4.

Sequence of Kv1.4 (P22459 whole entry): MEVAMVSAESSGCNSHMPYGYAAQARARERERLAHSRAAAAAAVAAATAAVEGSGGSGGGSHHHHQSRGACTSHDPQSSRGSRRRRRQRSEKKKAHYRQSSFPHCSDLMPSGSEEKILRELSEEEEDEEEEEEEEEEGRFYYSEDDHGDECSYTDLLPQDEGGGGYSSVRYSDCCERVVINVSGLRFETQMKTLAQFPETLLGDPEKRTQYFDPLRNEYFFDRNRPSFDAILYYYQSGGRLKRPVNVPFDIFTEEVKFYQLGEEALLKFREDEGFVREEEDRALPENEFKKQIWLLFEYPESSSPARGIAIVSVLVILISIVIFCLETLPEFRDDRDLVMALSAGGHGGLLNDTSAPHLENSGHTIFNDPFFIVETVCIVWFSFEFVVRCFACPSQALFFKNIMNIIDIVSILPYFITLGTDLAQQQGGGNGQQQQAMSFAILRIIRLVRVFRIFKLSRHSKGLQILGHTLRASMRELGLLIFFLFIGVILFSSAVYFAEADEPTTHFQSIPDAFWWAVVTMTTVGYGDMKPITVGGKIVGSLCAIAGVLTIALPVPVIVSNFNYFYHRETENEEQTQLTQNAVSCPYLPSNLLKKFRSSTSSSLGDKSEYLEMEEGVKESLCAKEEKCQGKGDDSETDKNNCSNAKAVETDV
T2 sequence (Q9NPC2 whole entry, species assumed): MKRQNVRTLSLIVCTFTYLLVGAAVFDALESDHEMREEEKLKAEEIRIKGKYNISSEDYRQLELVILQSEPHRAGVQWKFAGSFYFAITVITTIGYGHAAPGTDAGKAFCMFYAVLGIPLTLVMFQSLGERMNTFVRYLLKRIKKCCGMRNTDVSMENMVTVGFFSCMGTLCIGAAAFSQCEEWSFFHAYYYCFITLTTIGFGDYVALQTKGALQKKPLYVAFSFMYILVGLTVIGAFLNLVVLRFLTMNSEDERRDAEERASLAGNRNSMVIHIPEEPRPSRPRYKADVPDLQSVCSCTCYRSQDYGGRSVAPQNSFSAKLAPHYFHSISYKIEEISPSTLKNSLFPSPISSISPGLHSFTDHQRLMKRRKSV

Usually IC50 stands for the midpoint of a concentration-inhibition curve. For `CC(C)=CCC/C(C)=C/Cc1cc2ccc(=O)oc2cc1O` [ostruthin], the IC50 in test [1] amounted to 198 µM; in test [2], 227 µM; in test [3], 269 µM. The “effect on KCNQ-3 channels” value in test [4] was “no effect”. In addition, the “stress-induced c-Fos immunoreactivity in most nuclei (PVN, PVT, CeA, BLA, DRD, DRV)” value in test [5] (setting [6]) is listed as “no significant differences”. For the same compound, the “stress-induced increase in c-Fos immunoreactivity in the lateral septum (LS)” value in test [5] (setting [6]) is listed as “significantly suppressed”. In test [5] (fixed 30 min after administration, vs PBS (data not shown)), the “anti-c-Fos immunoreactivity in non-stressed animals” value is “no difference”.
